Reference: patent publication US5807535A, “Metal complexes of hydroxyaryl containing aminocarboxylic acid chelating agents” (Australian Nuclear Science & Technology Organisation, priority 1992, dated 1998)
Like-named read-outs stand apart in the source and are kept apart here.

What was measured:
[1] = Biodistribution of 99mTc complexes in rats; format: in vivo, Australian Albino Wistar Rats; details: for tissue uptake at 0.5 min / tissue uptake at 1 min / tissue uptake at 0.05 h / tissue uptake at 5 min / tissue uptake at 10 min: rat; for tissue uptake at 0.5 min: 30 sec
Method: (§1) A typical method of radiolabelling of the chelator was achieved by dissolving the chelator in a basic solution of saline. The pH was then adjusted to approx. 6 with HCl. Excess stannous chloride was added to the resultant solution followed by one equivalent volume of sodium ^99m TcO4 (10-50 mCi/ml). Final concentration of the chelator was approx. 1 mg/ml. The efficacy of labelling was determined by ITLC-SG. For each product only one main radiochemical species was observed. Each complex was diluted to 15 μCi/100 μl with saline. […] (See FIGS. 1A and 1B).
Selected data from biodistribution results of technetium-99m complexes of No. 1, No. 2 and No 4 in the liver, kidney and blood at 3 minutes is tabulated below.

[2] = Biodistribution of 99mTc complexes in mice; format: in vivo, Balb/c mice
Description: A series of derivatives incorporating carboxyl and phenolate donor groups (1-6) were synthesised by literature method and their radiolabelling characteristic and biological behaviour evaluated. Initial work involved an investigation of radiochemical properties of the ^99m Tc complexes of the ligands and their biodistribution in rats and mice (see Tables 1-6 and 8-12).
as §1

[3] = blood, rats, read-out: biodistribution blood
[4] = bone, rats, read-out: biodistribution bone
[5] = brain, rats, read-out: biodistribution brain
[6] = eyes, rats, read-out: biodistribution eyes
[7] = heart, rats, read-out: biodistribution heart
[8] = kidneys, rats, read-out: biodistribution kidneys
[9] = liver, rats, read-out: biodistribution liver
[10] = lungs, rats, read-out: biodistribution lungs
[11] = muscle, rats, read-out: biodistribution muscle
[12] = pancreas, rats, read-out: biodistribution pancreas
[13] = skin, rats, read-out: biodistribution skin
[14] = spleen, rats, read-out: biodistribution spleen
[15] = stomach, rats, read-out: biodistribution stomach
[16] = tail, rats, read-out: biodistribution tail
[17] = thymus, rats, read-out: biodistribution thymus
[18] = thyroid, rats, read-out: biodistribution thyroid
[19] = total git, rats, read-out: biodistribution tot GIT

tissue uptake at 0.5 min [1, 3]: 2.79 %ID/g
tissue uptake at 1 min [1, 3]: 2.77 %ID/g
tissue uptake at 0.05 h ([1]; blood, rats, 3 minutes, selected data, read-out: Blood): 1.32 %ID/g
tissue uptake at 5 min [1, 3]: 0.94 %ID/g
tissue uptake at 10 min [1, 3]: 0.77 %ID/g
tissue uptake at 0.5 min [1, 4]: 0.34 %ID/g
tissue uptake at 1 min [1, 4]: 0.37 %ID/g
tissue uptake at 0.05 h ([1]; bone, rats, 3 min, read-out: biodistribution bone): 0.25 %ID/g
tissue uptake at 5 min [1, 4]: 0.19 %ID/g
tissue uptake at 10 min [1, 4]: 0.15 %ID/g
tissue uptake at 0.5 min [1, 5]: 0.14 %ID/g
tissue uptake at 1 min [1, 5]: 0.09 %ID/g
tissue uptake at 0.05 h ([1]; brain, rats, 3 min, read-out: biodistribution brain): 0.06 %ID/g
tissue uptake at 5 min [1, 5]: 0.04 %ID/g
tissue uptake at 10 min [1, 5]: 0.03 %ID/g
tissue uptake at 0.5 min [1, 6]: 0.11 %ID/g
tissue uptake at 1 min [1, 6]: 0.15 %ID/g
tissue uptake at 0.05 h ([1]; eyes, rats, 3 min, read-out: biodistribution eyes): 0.12 %ID/g
tissue uptake at 5 min [1, 6]: 0.1 %ID/g
tissue uptake at 10 min [1, 6]: 0.1 %ID/g
tissue uptake at 0.5 min [1, 7]: 0.87 %ID/g
tissue uptake at 1 min [1, 7]: 0.93 %ID/g
tissue uptake at 0.05 h ([1]; heart, rats, 3 min, read-out: biodistribution heart): 0.46 %ID/g
tissue uptake at 5 min [1, 7]: 0.36 %ID/g
tissue uptake at 10 min [1, 7]: 0.28 %ID/g
tissue uptake at 0.05 h ([1]; kidney, rats, 3 minutes, selected data, read-out: Kidney): 8.9 %ID/g
tissue uptake at 0.5 min [1, 8]: 6.42 %ID/g
tissue uptake at 1 min [1, 8]: 8.37 %ID/g
tissue uptake at 0.05 h ([1]; kidneys, rats, 3 min, read-out: biodistribution kidneys): 8.9 %ID/g
tissue uptake at 5 min [1, 8]: 7.26 %ID/g
tissue uptake at 10 min [1, 8]: 3.35 %ID/g
tissue uptake at 0.5 min [1, 9]: 4.61 %ID/g
tissue uptake at 1 min [1, 9]: 6.28 %ID/g
tissue uptake at 0.05 h ([1]; liver, rats, 3 minutes, selected data, read-out: Liver): 5.93 %ID/g
tissue uptake at 5 min [1, 9]: 3.93 %ID/g
tissue uptake at 10 min [1, 9]: 1.89 %ID/g
tissue uptake at 0.5 min [1, 10]: 1.2 %ID/g
tissue uptake at 1 min [1, 10]: 1.17 %ID/g
tissue uptake at 0.05 h ([1]; lungs, rats, 3 min, read-out: biodistribution lungs): 0.79 %ID/g
tissue uptake at 5 min [1, 10]: 0.59 %ID/g
tissue uptake at 10 min [1, 10]: 0.48 %ID/g
tissue uptake at 0.5 min [1, 11]: 0.22 %ID/g
tissue uptake at 1 min [1, 11]: 0.24 %ID/g
tissue uptake at 0.05 h ([1]; muscle, rats, 3 min, read-out: biodistribution muscle): 0.2 %ID/g
tissue uptake at 5 min [1, 11]: 0.16 %ID/g
tissue uptake at 10 min [1, 11]: 0.11 %ID/g
tissue uptake at 0.5 min [1, 12]: 0.49 %ID/g
tissue uptake at 1 min [1, 12]: 0.66 %ID/g
tissue uptake at 0.05 h ([1]; pancreas, rats, 3 min, read-out: biodistribution pancreas): 0.44 %ID/g
tissue uptake at 5 min [1, 12]: 0.52 %ID/g
tissue uptake at 10 min [1, 12]: 0.27 %ID/g
tissue uptake at 0.5 min [1, 13]: 0.29 %ID/g
tissue uptake at 1 min [1, 13]: 0.45 %ID/g
tissue uptake at 0.05 h ([1]; skin, rats, 3 min, read-out: biodistribution skin): 0.42 %ID/g
tissue uptake at 5 min [1, 13]: 0.35 %ID/g
tissue uptake at 10 min [1, 13]: 0.33 %ID/g
tissue uptake at 0.5 min [1, 14]: 0.62 %ID/g
tissue uptake at 1 min [1, 14]: 0.58 %ID/g
tissue uptake at 0.05 h ([1]; spleen, rats, 3 min, read-out: biodistribution spleen): 0.33 %ID/g
tissue uptake at 5 min [1, 14]: 0.25 %ID/g
tissue uptake at 10 min [1, 14]: 0.16 %ID/g
tissue uptake at 0.5 min [1, 15]: 0.41 %ID/g
tissue uptake at 1 min [1, 15]: 0.68 %ID/g
tissue uptake at 0.05 h ([1]; stomach, rats, 3 min, read-out: biodistribution stomach): 2.08 %ID/g
tissue uptake at 5 min [1, 15]: 0.98 %ID/g
tissue uptake at 10 min [1, 15]: 0.9 %ID/g
tissue uptake at 0.5 min [1, 16]: 0.81 %ID/g
tissue uptake at 1 min [1, 16]: 0.66 %ID/g
tissue uptake at 0.05 h ([1]; tail, rats, 3 min, read-out: biodistribution tail): 0.64 %ID/g
tissue uptake at 5 min [1, 16]: 1.16 %ID/g
tissue uptake at 10 min [1, 16]: 0.55 %ID/g
tissue uptake at 0.5 min [1, 17]: 0.39 %ID/g
tissue uptake at 1 min [1, 17]: 0.37 %ID/g
tissue uptake at 0.05 h ([1]; thymus, rats, 3 min, read-out: biodistribution thymus): 0.27 %ID/g
tissue uptake at 5 min [1, 17]: 0.17 %ID/g
tissue uptake at 10 min [1, 17]: 0.15 %ID/g
tissue uptake at 0.5 min [1, 18]: 1.41 %ID/g
tissue uptake at 1 min [1, 18]: 1.71 %ID/g
tissue uptake at 0.05 h ([1]; thyroid, rats, 3 min, read-out: biodistribution thyroid): 0.81 %ID/g
tissue uptake at 5 min [1, 18]: 0.58 %ID/g
tissue uptake at 10 min [1, 18]: 0.44 %ID/g
tissue uptake at 0.5 min [1, 19]: 0.48 %ID/g
tissue uptake at 1 min [1, 19]: 0.58 %ID/g
tissue uptake at 0.05 h ([1]; total git, rats, 3 min, read-out: biodistribution tot GIT): 1.56 %ID/g
tissue uptake at 5 min [1, 19]: 2.27 %ID/g
tissue uptake at 10 min [1, 19]: 3.18 %ID/g
biodistribution blood ([1]; rats, 3 min): 1.32 % Injected dose per gram
biodistribution liver ([1]; rats, 3 min): 5.93 % Injected dose per gram
biodistribution GIT ([2]; 1 min): 3.74 % Injected dose
biodistribution blood ([2]; 1 min): 23.14 % Injected dose
biodistribution bone ([2]; 1 min): 7.88 % Injected dose
biodistribution heart ([2]; 1 min): 0.49 % Injected dose
biodistribution kidney ([2]; 1 min): 8.04 % Injected dose
biodistribution liver ([2]; 1 min): 14.68 % Injected dose
biodistribution lungs ([2]; 1 min): 1.36 % Injected dose
biodistribution muscle ([2]; 1 min): 19.67 % Injected dose
biodistribution skin ([2]; 1 min): 13.37 % Injected dose
biodistribution spleen ([2]; 1 min): 0.19 % Injected dose
biodistribution stomach ([2]; 1 min): 0.67 % Injected dose
biodistribution tail ([2]; 1 min): 4.05 % Injected dose
biodistribution urine ([2]; 1 min): 0.09 % Injected dose
biodistribution GIT ([2]; 3 min): 4.86 % Injected dose
biodistribution blood ([2]; 3 min): 14.96 % Injected dose
biodistribution bone ([2]; 3 min): 6.29 % Injected dose
biodistribution heart ([2]; 3 min): 0.34 % Injected dose
biodistribution kidney ([2]; 3 min): 10.44 % Injected dose
biodistribution liver ([2]; 3 min): 14.52 % Injected dose
biodistribution lungs ([2]; 3 min): 1.19 % Injected dose
biodistribution muscle ([2]; 3 min): 14.89 % Injected dose
biodistribution skin ([2]; 3 min): 13.1 % Injected dose
biodistribution spleen ([2]; 3 min): 0.16 % Injected dose
biodistribution stomach ([2]; 3 min): 0.998 % Injected dose
biodistribution tail ([2]; 3 min): 6.89 % Injected dose
biodistribution urine ([2]; 3 min): 2.78 % Injected dose
biodistribution GIT ([2]; 5 min): 3.38 % Injected dose
biodistribution blood ([2]; 5 min): 7.4 % Injected dose
biodistribution bone ([2]; 5 min): 2.99 % Injected dose
biodistribution heart ([2]; 5 min): 0.22 % Injected dose
biodistribution kidney ([2]; 5 min): 5.45 % Injected dose
biodistribution liver ([2]; 5 min): 7.75 % Injected dose
biodistribution lungs ([2]; 5 min): 0.72 % Injected dose
biodistribution muscle ([2]; 5 min): 6.73 % Injected dose
biodistribution skin ([2]; 5 min): 7.96 % Injected dose
biodistribution spleen ([2]; 5 min): 0.07 % Injected dose
biodistribution stomach ([2]; 5 min): 0.6 % Injected dose
biodistribution tail ([2]; 5 min): 30.12 % Injected dose
biodistribution urine ([2]; 5 min): 1.06 % Injected dose
biodistribution GIT ([2]; 10 min): 8.11 % Injected dose
biodistribution blood ([2]; 10 min): 7.15 % Injected dose
biodistribution bone ([2]; 10 min): 2.76 % Injected dose
biodistribution heart ([2]; 10 min): 0.15 % Injected dose
biodistribution kidney ([2]; 10 min): 5.14 % Injected dose
biodistribution liver ([2]; 10 min): 7.95 % Injected dose
biodistribution lungs ([2]; 10 min): 0.53 % Injected dose
biodistribution muscle ([2]; 10 min): 8.73 % Injected dose
biodistribution skin ([2]; 10 min): 11.02 % Injected dose
biodistribution spleen ([2]; 10 min): 0.06 % Injected dose
biodistribution stomach ([2]; 10 min): 1.3 % Injected dose
biodistribution tail ([2]; 10 min): 18.31 % Injected dose
biodistribution urine ([2]; 10 min): 2.67 % Injected dose
biodistribution GIT ([2]; 30 min): 16.24 % Injected dose
biodistribution blood ([2]; 30 min): 3.58 % Injected dose
biodistribution bone ([2]; 30 min): 2.27 % Injected dose
biodistribution heart ([2]; 30 min): 0.09 % Injected dose
biodistribution kidney ([2]; 30 min): 4 % Injected dose
biodistribution liver ([2]; 30 min): 5.71 % Injected dose
biodistribution lungs ([2]; 30 min): 0.43 % Injected dose
biodistribution muscle ([2]; 30 min): 5.48 % Injected dose
biodistribution skin ([2]; 30 min): 5.58 % Injected dose
biodistribution spleen ([2]; 30 min): 0.05 % Injected dose
biodistribution stomach ([2]; 30 min): 2.06 % Injected dose
biodistribution tail ([2]; 30 min): 7.67 % Injected dose
biodistribution urine ([2]; 30 min): 3.84 % Injected dose
SMILES: O=C(O)CN(CCN(CC(=O)O)CC(=O)Nc1ccc(Cl)cc1O)CC(=O)Nc1ccc(Cl)cc1O [Compound 2]
hepatobiliary passage ([1]; Tables 2 and 4): specifically traverse the hepatobiliary system
liver versus kidney uptake ([1]; rats): preference for the liver uptake as opposed to the kidney
